Measured values from patent US9650339B2, “Inhibitors of histone demethylases” (Gilead Sciences, Inc., priority 2013, dated 2017).

Key:
[1] = molecular target: KDM6A (UTX) (Homo sapiens, UniProt O15550); assay: Histone lysine demethylase AlphaLISA assay, KDM6A; assay type: biochemical; settings: read-out: KDM6A HDME Inhibition IC50
Procedure, shortened: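 AlphaLISA demethylation readout: enzyme preincubated 10 min, then 10 min with compounds in 3% DMSO buffer, before biotinylated methyl-lysine histone peptide substrate with 25 μM L-Asc and 10 μM α-KG, room temperature. Acceptor beads then streptavidin donor beads added, dark incubation, plates read.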

[2] = molecular target: T1, KDM3B (JMJD1B) (Homo sapiens, UniProt Q7LBC6); assay: Histone lysine demethylase AlphaLISA assay, KDM3B; assay type: biochemical; settings: read-out: KDM3B HDME Inhibition IC50
T1 construct: 842-1761; host or cells: Bac (baculovirus system)
T1 sequence (Q7LBC6 842-1761): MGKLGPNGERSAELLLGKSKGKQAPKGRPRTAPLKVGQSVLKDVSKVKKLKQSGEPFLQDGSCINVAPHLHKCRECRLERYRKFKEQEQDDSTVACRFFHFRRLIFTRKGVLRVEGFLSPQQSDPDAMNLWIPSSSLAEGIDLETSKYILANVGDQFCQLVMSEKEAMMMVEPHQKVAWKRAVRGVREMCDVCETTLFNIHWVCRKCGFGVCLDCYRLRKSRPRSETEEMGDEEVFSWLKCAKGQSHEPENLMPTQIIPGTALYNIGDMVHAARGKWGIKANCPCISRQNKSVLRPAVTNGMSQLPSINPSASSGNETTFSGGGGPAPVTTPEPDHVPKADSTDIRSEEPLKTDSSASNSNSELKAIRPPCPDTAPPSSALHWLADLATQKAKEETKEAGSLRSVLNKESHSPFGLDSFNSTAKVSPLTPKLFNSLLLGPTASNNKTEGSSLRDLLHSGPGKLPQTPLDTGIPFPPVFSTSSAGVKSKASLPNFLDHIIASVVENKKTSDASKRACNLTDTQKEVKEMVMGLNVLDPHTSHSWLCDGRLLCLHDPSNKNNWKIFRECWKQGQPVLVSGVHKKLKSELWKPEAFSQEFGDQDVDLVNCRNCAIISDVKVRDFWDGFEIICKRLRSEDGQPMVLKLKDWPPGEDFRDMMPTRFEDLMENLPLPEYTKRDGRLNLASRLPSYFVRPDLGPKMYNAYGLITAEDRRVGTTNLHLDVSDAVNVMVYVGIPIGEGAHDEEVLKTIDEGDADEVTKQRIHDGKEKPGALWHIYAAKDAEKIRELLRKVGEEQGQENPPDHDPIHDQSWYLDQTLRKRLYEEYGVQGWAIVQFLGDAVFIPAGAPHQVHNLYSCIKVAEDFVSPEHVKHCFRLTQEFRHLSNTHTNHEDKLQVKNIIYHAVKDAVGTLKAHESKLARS
Protocol: Assays are performed analogously to the protocol described by PerkinElmer (Roy et al. PerkinElmer Technical Note: AlphaLISA #12, April 2011)
Enzymes are dissolved in enzyme buffer and incubated for 10 min before being added to 3% DMSO solutions of compounds in enzyme buffer. Incubated for another 10 minutes, before substrate solution is added and the reaction mixture is incubated at room temperature. 10 μL acceptor beads, suspended in Epigenetic Buffer (Perkin Elmer AL008) from stock, are added and the suspension is incubated in the dark at room temperature, before a suspension of streptavidin donor beads (Perkin Elmer 6760002) in Epigenetic Buffer is added. After incubation at room temperature in the dark the plates are read. […]
BK9M2: Biotin-ARTKQTAR(KMe2)STGGKAPRKQ-NH2 (AnaSpec 64359) […]
Substrate Solution: Substrate, 25 μM L-Asc, and 10 μM α-KG in Buffer A.

[3] = molecular target: T2, KDM5B (Homo sapiens, UniProt Q9UGL1); assay: Histone lysine demethylase immunofluorescence assay, U2OS cells transfected with KDM5B; assay type: cell-based; settings: U2OS cells transfected with pCMVHA KDM5B; mark detected H3K4me2; 20 hours
T2 construct: (a.a. 1-752); host or cells: U2OS
T2 sequence (Q9UGL1 1-752): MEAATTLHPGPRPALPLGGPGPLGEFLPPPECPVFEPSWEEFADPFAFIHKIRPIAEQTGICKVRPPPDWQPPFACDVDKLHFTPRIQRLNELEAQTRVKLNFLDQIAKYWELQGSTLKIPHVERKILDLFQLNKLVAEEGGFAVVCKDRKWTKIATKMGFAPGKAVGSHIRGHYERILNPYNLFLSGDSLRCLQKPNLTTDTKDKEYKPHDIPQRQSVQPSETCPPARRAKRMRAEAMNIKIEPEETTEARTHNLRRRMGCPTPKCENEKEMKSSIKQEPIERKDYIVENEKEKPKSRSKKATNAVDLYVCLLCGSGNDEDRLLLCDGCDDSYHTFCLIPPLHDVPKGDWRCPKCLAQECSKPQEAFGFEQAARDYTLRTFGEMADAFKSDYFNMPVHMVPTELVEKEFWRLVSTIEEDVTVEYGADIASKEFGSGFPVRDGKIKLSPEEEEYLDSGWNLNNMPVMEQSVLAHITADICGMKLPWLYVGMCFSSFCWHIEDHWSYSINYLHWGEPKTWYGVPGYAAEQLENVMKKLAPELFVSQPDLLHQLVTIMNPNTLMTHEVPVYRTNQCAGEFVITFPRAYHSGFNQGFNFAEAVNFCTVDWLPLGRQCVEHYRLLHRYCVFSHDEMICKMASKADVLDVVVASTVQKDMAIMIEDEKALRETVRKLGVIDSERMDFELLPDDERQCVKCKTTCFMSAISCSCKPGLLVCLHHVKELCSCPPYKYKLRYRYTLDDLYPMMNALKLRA
Procedure, shortened: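 U2OS cells were transiently transfected with HA-tagged demethylase and reseeded after 6 h into compound-containing DMEM/10% FBS for 20 h. Cells were fixed in formaldehyde and immunostained for HA and the relevant histone methyl mark, then imaged. IC50 is based on mean mark staining in HA+ transfected cells.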

KDM6A (UTX), sequence (O15550 919-1401): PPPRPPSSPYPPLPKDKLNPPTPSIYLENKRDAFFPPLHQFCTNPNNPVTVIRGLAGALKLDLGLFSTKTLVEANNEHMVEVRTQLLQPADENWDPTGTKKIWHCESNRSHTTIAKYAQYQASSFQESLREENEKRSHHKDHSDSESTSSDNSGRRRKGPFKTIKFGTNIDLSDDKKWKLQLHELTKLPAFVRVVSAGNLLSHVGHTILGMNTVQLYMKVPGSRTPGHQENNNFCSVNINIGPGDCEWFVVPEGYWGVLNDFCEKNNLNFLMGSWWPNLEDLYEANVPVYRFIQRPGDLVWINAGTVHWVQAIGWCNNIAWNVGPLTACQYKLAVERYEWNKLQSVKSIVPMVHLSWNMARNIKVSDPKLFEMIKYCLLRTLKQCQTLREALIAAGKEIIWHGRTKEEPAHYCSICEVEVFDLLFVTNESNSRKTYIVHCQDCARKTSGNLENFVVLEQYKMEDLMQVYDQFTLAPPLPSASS

SMILES	IC50 [1] [nM]	IC50 [2] [nM]	IC50 [3] [nM]
CCN(CCN(C)C)C(=O)CNCc1cc(/C=N/CCC2CCCCC2)ccn1 [Compound 63, 2-[({4-[[(2-cydohexylethyl)-imino]methyl]pyridin-2-yl}methyl)amino]-N-[2-(dimethylamino)-ethyl]-N-ethylacetamide]	> 2500	> 2500	< 250
CCN(CC)CCCCNC(=O)CNCc1cc(/C=N/C2CC2)ccn1 [Compound 48, 2-[({4-[N-cyclopropyl-carboximidoyl]pyridin-2-yl}methyl)amino]-N-[4-(diethylamino)-butyl]acetamide]	> 2500	> 2500	> 2500
CN(C)C(=O)CNCc1cc(/C=N/CCCc2ccccc2)ccn1 [Compound 34, N,N-dimethyl-2-[({4-[[(3-phenylpropyl)imino]-methyl]pyridin-2-yl}methyl)amino]-acetamide]	> 2500	> 2500	250 to 2500
CNC(C#N)c1ccnc(CNCCCN(C)C)c1 (stereo not drawn) [Compound 24, 2-[2-({[3-(dimethylamino)propyl]-amino}methyl)pyridin-4-yl]-2-(methylamino)-acetonitrile]	> 2500	> 2500	< 250
CCN(CCN(C)C)C(=O)CNCc1cc(CNC(=O)C(F)(F)F)ccn1 [Compound 25, N-[(2-{[({[2-(dimethylamino)ethyl]-(ethyl)carbamoyl}-methyl)amino]methyl}-pyrtdin-4-yl)methyl]-2,2,2-trifluoroacetamide]	> 2500	> 2500	< 250
CC(C#N)NCc1ccnc(CNCCCN(C)C)c1 (stereo not drawn) [Compound 22, 2-({[2-({[3-(dimethylamino)propyl]-amino}methyl)pyridin-4-yl]methyl}amino)-propanenitrile]	> 2500	> 2500	< 250
CC1CC1/N=C/c1ccnc(CNCC(=O)N(C)C)c1 (stereo not drawn) [Compound 35, N,N-dimethyl-2-[({4-[N-(2-methylcyclopropyl)-carboximidoyl]pyridin-2-yl}methyl)amino]-acetamide]	> 2500	> 2500	250 to 2500
CCN(CC)CCCCNCc1cc(CN)ccn1 [Compound 5, [2-({[4-(diethylamino)butyl]-amino}methyl)pyridin-4-yl]methanamine]	> 2500	> 2500	< 250
CN(C)CCCCNCc1cc(/C=N\C2CC2)ccn1 [Compound 45, N-{[2-({[4-(dimethylamino)butyl]-amino}methyl)-pyridin-4-yl]methylidene}-cyclopropanamine]	> 2500	> 2500	< 250
CN(C)CC1CCC(CNCc2cc(/C=N/C3CC3)ccn2)CC1 (stereo not drawn) [Compound 46, N-[(2-{[({4-[(dimethylamino)-methyl]cyclohexyl}-methyl)amino]-methyl}pyridin-4-yl)methylidene]-cyclopropanamine]	> 2500	> 2500	< 250
CCN(CC)CCCCNCc1cc(/C=N/CCO)ccn1 [Compound 61, 2-[{[2-({[4-(diethylamino)-butyl]amino}-methyl)pyridin-4-yl]methylidene}-amino]ethan-1-ol]	> 2500	> 2500	< 250
c1ccc(CN2CCC[C@H]2CNCc2cc(CNCC3CC3)ccn2)cc1 [Compound 16, {[(2S)-1-benzylpyrrolidin-2-yl]methyl}[(4-{[(cyclopropylmethyl)-amino]methyl}pyridin-2-yl)methyl]amine]	> 2500	> 2500	> 2500
CCN(CCN(C)C)C(=O)CNCc1cc(/C=N/CCO)ccn1 [Compound 66]	> 2500	> 2500	< 250
CN(C)CCCCCNCc1cc(/C=N/C2CC2)ccn1 [Compound 47, N-{[2-({[5-(dimethylamino)-pentyl]amino}-methyl)pyridin-4-yl]methylidene}-cyclopropanamine]	> 2500	> 2500	< 250
O=C(CNCc1cc(/C=N/C2CC2)ccn1)NC1CCN(Cc2ccccc2)C1 (stereo not drawn) [Compound 53, N-(1-benzylpyrrolidin-3-yl)-2-[({4-[N-cyclopropyl-carboximidoyl]pyridin-2-yl}methyl)amino]-acetamide]	> 2500	> 2500	250 to 2500

Continued, values first:

IC50 [1] [nM]	IC50 [2] [nM]	IC50 [3] [nM]	SMILES
> 2500	> 2500	< 250	CN1CCC(CNCc2cc(C=O)ccn2)CC1 [Compound 100, 2-({[(1-methyl-piperidin-4-yl)methyl]amino}-methyl)pyridine-4-carbaldehyde]
> 2500	> 2500	> 2500	CCN(CC)CCCCNC(=O)CNCc1cc(C=O)ccn1 [Compound 112, N-[4-(diethylamino)-butyl]-2-{[(4-formylpyridin-2-yl)methyl]amino}-acetamide]
> 2500	> 2500	> 2500	CN(C)C/C=C\CNCc1cc(C=O)ccn1 [Compound 99, 2-({[(2Z)-4-(dimethylamino)-but-2-en-1-yl]amino}methyl)-pyridine-4-carbaldehyde]
> 2500	> 2500	< 250	CCN(CC)CCCCNCc1cc(/C=N\CCC2CCCCC2)ccn1 [Compound 67, (2-cyclohexylethyl)-({[2-({[4-(diethylamino)-butyl]amino}methyl)pyridin-4-yl]methylidene})-amine]
> 2500	> 2500	250 to 2500	CCN1CCCC1CNC(=O)CNCc1cc(C=O)ccn1 (stereo not drawn) [Compound 104, N-[(1-ethylpyrrolidin-2-yl)methyl]-2-{[(4-formylpyridin-2-yl)methyl]amino}-acetamide]
> 2500	> 2500	> 2500	O=Cc1ccnc(CNCC(=O)N2CCC(Cc3ccccc3)CC2)c1 [Compound 106, 2-({[2-(4-benzylpiperidin-1-yl)-2-oxoethyl]-amino}methyl)-pyridine-4-carbaldehyde]
> 2500	> 2500	< 250	CN(C)CC1CCC(CNCc2cc(C=O)ccn2)CC1 (stereo not drawn) [Compound 97, 2-{[({4-[(dimethylamino)-methyl]cyclohexyl}-methyl)amino]-methyl}pyridine-4-carbaldehyde]
> 2500	> 2500	250 to 2500	CN(C)CCNCc1cc(C=O)ccn1 [Compound 110, 2-({[2-(dimethylamino)-ethyl]amino}methyl)-pyridine-4-carbaldehyde]
